According to patent US7550495B2 (priority 2004, dated 2009):
≈ marks a conversion by molar mass, not a printed value.

What was measured:
[1] = Assay condition for measuring solubility; assay type: physicochemical; conditions: for solubility at 24 h: thermodynamic from solid, aqueous, sodium phosphate buffer pH 7.4, 24 h, 25° C.
Method: A 30 mM DMSO stock is prepared of the sample and then a 25 μL aliquot is added to a 96-well plate and genevac at 40° C. for 4 hours. To the genevac compound add 250 μL of sodium phosphate buffer (pH 7.4) and then mix at 1200 rpm for 24 h using an Eppendorf Thermomixer at 25° C. After mixing solution is transferred to a 96-well Whatman GF/B filter plate and then filtered under vacuum. The supernatant is then injected onto the LC/MS for analysis and quantitation is performed using a 1-point calibration for the compound of interest.

[2] = Metabolic stability assay in rat liver microsomes; assay type: in vitro ADME; conditions: pH 7.4, 37° C., read-out: rCLint
Method: (§1) A solution of 500 μl of 100 μM compound in DMSO is incubated with human or rat liver microsomes (843 μl of microsomes of 0.5618 mg/mL in 30 ml 0.1 M KH2PO4 buffer pH7.4) at 37° C. for 10 min in a 96-deep well plate. NADPH (46 μL) at a concentration of 8.33 mg/ml in 100 mM KH2PO4 buffer pH 7.4 is added to start the reaction. The reaction mixtures are transferred to a 384-well plate containing acetonitrile to quench the reaction at time 0, 10, 20, 30 minutes. The 384 well plate is centrifuged for 30 min at 9000 g, at 4° C., from which samples are analyzed by LC/MS (model: XDB Eclipse C18). Three references are analyzed by LC/MS as a positive control. Data are processed following a standard procedure. The metabolic stability of assayed compounds is expressed as μL/min/mg

[3] = Metabolic stability assay in human liver microsomes; assay type: in vitro ADME
Method: as §1

Human CB1 receptor [4] = biological target: T1, Human CB1 receptor (Homo sapiens, UniProt P21554); experiment: hCB1 receptor binding (3H-CP55,940 displacement); conditions: Ki=IC50/(1+[rad]/Kd)
T1 construct: purchased Receptor Biology
T1 sequence (P21554 whole entry): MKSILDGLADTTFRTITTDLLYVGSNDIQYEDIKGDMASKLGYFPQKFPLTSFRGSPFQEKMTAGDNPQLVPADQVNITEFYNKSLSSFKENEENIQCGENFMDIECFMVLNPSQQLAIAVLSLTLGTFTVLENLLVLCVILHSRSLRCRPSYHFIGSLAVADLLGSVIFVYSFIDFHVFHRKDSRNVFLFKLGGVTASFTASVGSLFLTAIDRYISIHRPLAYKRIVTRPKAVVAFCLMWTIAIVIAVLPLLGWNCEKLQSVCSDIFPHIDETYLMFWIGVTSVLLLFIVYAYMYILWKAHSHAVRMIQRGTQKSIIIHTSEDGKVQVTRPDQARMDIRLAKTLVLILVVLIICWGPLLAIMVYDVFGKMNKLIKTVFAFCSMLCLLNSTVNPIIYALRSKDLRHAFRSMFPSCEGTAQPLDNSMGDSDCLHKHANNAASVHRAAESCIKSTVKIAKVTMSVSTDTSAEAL
Method: Human CB1 receptor from Receptor Biology (hCB1) or human CB2 receptor from BioSignal (hCB2) membranes are thawed at 37° C., passed 3 times through a 25-gauge blunt-end needle, diluted in the cannabinoid binding buffer (50 mM Tris, 2.5 mM EDTA, 5 mM MgCl2, and 0.5 mg/mL BSA fatty acid free, pH 7.4) and aliquots containing the appropriate amount of protein are distributed in 96-well plates. The IC50 of the compounds of the invention at hCB1 and hCB2 are evaluated from 10-point dose-response curves done with ^3H-CP55,940 at 20000 to 25000 dpm per well (0.17-0.21 nM) in a final volume of 300 μl. The total and non-specific binding are determined in the absence and presence of 0.2 μM of HU210 respectively. The plates are vortexed and incubated for 60 minutes at room temperature, filtered through Unifilters GF/B (presoaked in 0.1% polyethyleneimine) with the Tomtec or Packard harvester using 3 mL of wash buffer (50 mM Tris, 5 mM MgCl2, 0.5 mg BSA pH 7.0). The filters are dried for 1 hour at 55° C. The radioactivity (cpm) is counted in a TopCount (Packard) after adding 65 μl/well of MS-20 scintillation liquid.
Based on the above assays, the dissociation constant (Ki) for a particular compound of the invention towards a particular receptor is determined using the following equation: Ki=IC50/(1+[rad]/Kd), […]

Human CB1 receptor [5] = biological target: T1, Human CB1 receptor; experiment: hCB1 GTPγS binding; assay type: biochemical
Method: Human CB1 receptor from Receptor Biology (hCB1) or human CB2 receptor membranes (BioSignal) are thawed at 37° C., passed 3 times through a 25-gauge blunt-end needle and diluted in the GTPγS binding buffer (50 mM Hepes, 20 mM NaOH, 100 mM NaCl, 1 mM EDTA, 5 mM MgCl2, pH 7.4, 0.1% BSA). The EC50 and Emax of the compounds of the invention are evaluated from 10-point dose-response curves done in 300 μl with the appropriate amount of membrane protein and 100000-130000 dpm of GTPg^35S per well (0.11-0.14 nM). The basal and maximal stimulated binding is determined in absence and presence of 1 μM (hCB2) or 10 μM (hCB1) Win 55,212-2 respectively. The membranes are pre-incubated for 5 minutes with 56.25 μM (hCB2) or 112.5 μM (hCB1) GDP prior to distribution in plates (15 μM (hCB2) or 30 μM (hCB1) GDP final). The plates are vortexed and incubated for 60 minutes at room temperature, filtered on Unifilters GF/B (presoaked in water) with the Tomtec or Packard harvester using 3 ml of wash buffer (50 mM Tris, 5 mM MgCl2, 50 mM NaCl, pH 7.0). The filters are dried for 1 hour at 55° C. The radioactivity (cpm) is counted in a TopCount (Packard) after adding 65 μl/well of MS-20 scintillation liquid. […]

[6] = pH 7.4, 37° C., read-out: hCLint

| Compound | solubility at 24 h [1] [µM] | microsomal CLint at 1.6 µM [2] [µL/min/mg] | microsomal CLint at 1.6 µM [3, 6] [µL/min/mg] | other results |
| --- | --- | --- | --- | --- |
| CCS(=O)(=O)Nc1ccc2c(c1)nc(C(C)(C)C)n2CC1CCC(F)(F)CC1 | 7.36 (≈ 3.04 µg/mL) | 11.7 | 5.76 | – |
| CC(C)(C)c1nc2cc(NS(=O)(=O)C(C)(C)C)ccc2n1CC1CCC(F)CC1 (centres unmarked) | 154 (≈ 65.3 µg/mL) | – | 11.5 | – |
| CC(C)(C)c1nc2cc(NS(=O)(=O)C3CC3)ccc2n1CC1CCC(F)(F)CC1 | 5.93 (≈ 2.52 µg/mL) | 10.2 | 7.77 | – |
| CC(F)(F)c1nc2cc(NS(=O)(=O)C(C)(C)C)ccc2n1CC1CCC(F)(F)CC1 | 0.51 (≈ 0.229 µg/mL) | 6.87 | < 4 | – |
| CC(C)(C)c1nc2cc(NS(C)(=O)=O)ccc2n1CC1CCC(F)(F)CC1 | 4.3 (≈ 1.72 µg/mL) | 23.4 | 7.41 | – |
| CCS(=O)(=O)Nc1ccc2c(c1)nc(C(C)(C)C)n2CC1CCC(F)CC1 (single isomer, unassigned) [Isomer B, N-{2-tert-Butyl-1-[(4-fluorocyclohexyl)methyl]-1H-benzimidazol-5-yl}ethanesulfonamide (isomers)] | – | – | – | Sol. pH 7.4 ([1]; listed as B): 381 μM; Ki (Human CB1 receptor [4]): 14.8 nM; microsomal CLint at 1.6 µM ([3]; pH 7.4, read-out: hClint): 7.7 µL/min/mg; EC50 (Human CB1 receptor [5]): 4.9 nM; Emax (Human CB1 receptor [5]; maximal stimulation with 10 μM Win 55,212-2): 103% |
| CC(F)(F)c1nc2cc(NS(=O)(=O)C3CC3)ccc2n1CC1CCC(F)(F)CC1 | 51.9 (≈ 22.5 µg/mL) | < 4 | 5.27 | – |
| CC(C)(C)c1nc2cc(NS(=O)(=O)C3CC3)ccc2n1CC1CCC(F)CC1 (centres unmarked) | 233 (≈ 95 µg/mL) | – | < 4 | – |
| CCS(=O)(=O)Nc1ccc2c(c1)nc(C(C)(C)C)n2CC1CCC(F)CC1 (centres unmarked) | 353 (≈ 140 µg/mL) | 62.6 | 5.72 | – |
| CCS(=O)(=O)Nc1ccc2c(c1)nc(C(C)(C)C)n2CC1CCC(F)CC1 (single isomer, unassigned) [Isomer A, N-{2-tert-Butyl-1-[(4-fluorocyclohexyl)methyl]-1H-benzimidazol-5-yl}ethanesulfonamide (isomers)] | – | – | – | Sol. pH 7.4 ([1]; listed as A): 64 μM; Ki (Human CB1 receptor [4]): 148 nM |
| CCCS(=O)(=O)Nc1ccc2c(c1)nc(C(C)(C)C)n2CC1CCC(F)(F)CC1 | 3.79 (≈ 1.62 µg/mL) | 8.04 | 10.7 | – |
| CC(C)(C)c1nc2cc(NS(=O)(=O)C(C)(C)C)ccc2n1CC1CCC(F)(F)CC1 | 0.61 (≈ 0.269 µg/mL) | 15.4 | 8.03 | – |
